Data on eleven compounds can be found in ChEMBL document CHEMBL1201862, “PubChem BioAssay data set” (2004).

Test systems include A498; A549; COLO 205; EKVX; HCC 2998; K562; MDA-N; NCI-H226; NCI-H23; OVCAR-4; PC-3; RPMI-8226; SF-268; SF-295; SN12C; SNB-19; SW-620; UO-31; HOP-92; NCI/ADR-RES.
Common to all, as to test: inhibition of tumour cell growth, NCI panel, 48 h

Where “and” joins values, the source holds several entries; their conditions need not be identical. Identical values can stand only once.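 Cultured in 96-well plates, cells were exposed to test compound for 48 hours across five concentrations. Abbreviation: GI50, concentration required for 50% inhibition of growth.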 Calls of active or inactive are those of the source. Rule as the data show it: active = GI50 up to about 1.1 µM and inactive = higher.

Regarding `C=C(C)C1CC[C@@](C)(O)[C@H](C#N)C1` (some centres undefined), the GI50 in the assay on A498, in the assay on A549, in the assay with COLO 205, with EKVX, in the assay with HCC 2998 and in the assay with K562 was > 100 µM (inactive) each time. In addition, the GI50 in the assay with MDA-N was > 100 µM (inactive); with NCI-H226 it was > 100 µM (inactive); in the assay on NCI-H23, > 100 µM (inactive); with OVCAR-4 it was > 100 µM (inactive); with PC-3, 71 µM (inactive); in the assay with RPMI-8226, > 100 µM (inactive). Moreover, the GI50 with SF-268, in the assay with SF-295, with SN12C, in the assay with SNB-19, in the assay with SW-620 and with UO-31 was > 100 µM (inactive) in each case.
In the case of `Cc1[nH]n(C2=NCCN2)c(=O)c1C`, the GI50 with A498, in the assay with A549, in the assay on COLO 205, in the assay with EKVX, with HOP-92 and in the assay with K562 was > 100 µM (inactive) in each case. In addition, the GI50 in the assay on NCI-H226, with NCI-H23, in the assay with NCI/ADR-RES, with OVCAR-4, in the assay on PC-3 and with RPMI-8226 was > 100 µM (inactive) each time. In addition, the GI50 in the assay on SF-268, in the assay with SF-295, with SNB-19, with SW-620 and in the assay on UO-31 was > 100 µM (inactive) each time.
In the case of `O=P1(O)c2ccccc2CCc2ccccc21`, the GI50 in the assay on A549, with COLO 205, in the assay on EKVX, with HCC 2998, in the assay on HOP-92 and in the assay on K562 was > 100 µM (inactive) throughout. The GI50 in the assay on MDA-N, in the assay with NCI-H226, in the assay on NCI-H23, in the assay on PC-3, with RPMI-8226 and with SF-268 was > 100 µM (inactive) in each case. Further, the GI50 in the assay on SF-295, in the assay on SN12C, in the assay on SNB-19, in the assay on SW-620 and in the assay on UO-31 was > 100 µM (inactive) in each case.
Take `CCOC(=O)C1=C(C)N(Cc2ccc(Cl)cc2Cl)C2(O)C(OC)CC(=O)C3C(=O)N(c4ccccc4)C(=O)C132` (centres undefined): the GI50 was 10.8 µM (inactive) with A498; 2.34 µM (inactive) in the assay on A549; 3.64 µM (inactive) in the assay on COLO 205; 3.4 µM (inactive) in the assay on EKVX; 2.08 µM (inactive) with HCC 2998; 0.0541 µM (active) in the assay on HOP-92. The GI50 with K562 was 1.11 µM (active); with NCI-H226, 3.33 µM (inactive); in the assay on NCI-H23, 3.46 µM (inactive); in the assay with NCI/ADR-RES, 2.01 µM (inactive); with OVCAR-4 it was 1.6 µM (inactive); with PC-3, 2.64 µM (inactive). For the same compound, the GI50 was 1.21 µM (inactive) in the assay on RPMI-8226; 2.26 µM (inactive) in the assay with SF-268; 4.43 µM (inactive) with SF-295; 2.26 µM (inactive) in the assay on SN12C; 2.53 µM (inactive) with SNB-19; 2.52 µM (inactive) with SW-620. Also, the GI50 in the assay with UO-31 was 4.54 µM (inactive).
Take `CN(C)C12C=CC=CC3=C(c4ccccc4)C(c4ccccc4)=C(c4ccccc4)C31c1ccccc1C2` (centres undefined): the GI50 in the assay with A549, in the assay with COLO 205, in the assay with EKVX, in the assay on HCC 2998, in the assay with K562 and in the assay with MDA-N was > 100 µM (inactive) in each case. Moreover, the GI50 with NCI/ADR-RES, in the assay on OVCAR-4, in the assay with PC-3, in the assay on RPMI-8226, with SF-268 and with SF-295 was > 100 µM (inactive) each time. Besides, the GI50 in the assay with SN12C, with SNB-19, with SW-620 and in the assay with UO-31 was > 100 µM (inactive) in each case.
As for `COc1cc(Oc2nc3ccccc3nc2C(=O)O)cc(OC)c1OC`, the GI50 with A498, in the assay on A549, in the assay on COLO 205, in the assay with EKVX, in the assay with HCC 2998 and in the assay with HOP-92 was > 100 µM (inactive) in each case. Further, the GI50 in the assay with K562, in the assay on NCI-H226, with NCI-H23, with NCI/ADR-RES, in the assay on OVCAR-4 and in the assay on PC-3 was > 100 µM (inactive) each time. Moreover, the GI50 in the assay with RPMI-8226, in the assay with SF-268, in the assay on SF-295, with SNB-19, in the assay with SW-620 and with UO-31 was > 100 µM (inactive) each time.
With `O=C(Cc1ccccc1CCO)NCCc1ccccc1`, the GI50 in the assay with A498, in the assay on A549, in the assay on COLO 205, with EKVX, with HCC 2998 and with HOP-92 was > 100 µM (inactive) throughout. Also, the GI50 in the assay on K562, in the assay on NCI-H226, in the assay on NCI-H23, in the assay with NCI/ADR-RES, in the assay with OVCAR-4 and in the assay with PC-3 was > 100 µM (inactive) in each case. Moreover, the GI50 in the assay with RPMI-8226, with SF-268, with SF-295, with SN12C, in the assay with SNB-19 and with SW-620 was > 100 µM (inactive) each time. In the assay on UO-31, the GI50 was 41.8 µM (inactive).
For `N#CC(c1ccccc1)N(CCOCCOCCN(C(=O)c1cccc2ccccc12)C(C#N)c1ccccc1)C(=O)c1cccc2ccccc12` (centres undefined), the GI50 with A498 is > 100 µM (inactive); in the assay with A549 it was 17.5 µM (inactive); in the assay with COLO 205, 52.1 µM (inactive); in the assay with EKVX it was > 100 µM (inactive); with HCC 2998, > 100 µM (inactive); in the assay on K562 it was 42.4 µM (inactive). Besides, the GI50 with MDA-N, in the assay on NCI-H226, in the assay with NCI-H23, with NCI/ADR-RES, in the assay on OVCAR-4 and in the assay with PC-3 was > 100 µM (inactive) throughout. Moreover, the GI50 with SF-268, with SF-295, with SN12C, in the assay with SNB-19, in the assay with SW-620 and in the assay on UO-31 was > 100 µM (inactive) throughout.
With `COc1ccc(OC)c(/C=C/[N+](=O)[O-])c1`, the GI50 in the assay with A498 is 3.92 µM (inactive) and 3.94 µM (inactive); with A549, 3.24 µM (inactive) and 5.79 µM (inactive); in the assay with COLO 205, 2.04 µM (inactive) and 3.15 µM (inactive); in the assay with HOP-92 it was 4.35 µM (inactive) and 3.05 µM (inactive); in the assay on K562, 2.59 µM (inactive) and 2.83 µM (inactive); with MDA-N, 3.16 µM (inactive). Moreover, the GI50 was 4.02 µM (inactive) and 2.41 µM (inactive) in the assay with NCI-H23; 2.96 µM (inactive) with NCI/ADR-RES; 4.31 µM (inactive) and 2.8 µM (inactive) with OVCAR-4; 1.39 µM (inactive) and 845 nM (active) in the assay on RPMI-8226; 3.01 µM (inactive) and 4.54 µM (inactive) in the assay with SF-268; 5.24 µM (inactive) and 3.46 µM (inactive) with SF-295. The GI50 in the assay with SN12C is 2.44 µM (inactive) and 3.77 µM (inactive); in the assay with SNB-19, 3.44 µM (inactive) and 4.23 µM (inactive); with SW-620, 3 µM (inactive) and 2.2 µM (inactive); in the assay on UO-31, 1.74 µM (inactive) and 2.77 µM (inactive).
As to `CN(C)CCNC(=O)c1cccc2nc3c(C(=O)NCCN(C)C)cccc3nc12`, the GI50 with A498 was 1.85 µM (inactive); in the assay on A549, 1.57 µM (inactive); in the assay on COLO 205, 0.612 µM (active); with EKVX, 1.49 µM (inactive); in the assay on HCC 2998, 1.15 µM (inactive); in the assay with HOP-92, 2.9 µM (inactive). For the same compound, the GI50 in the assay on K562 is 0.621 µM (active); in the assay with NCI-H226, 1.46 µM (inactive); in the assay on NCI-H23 it was 1.19 µM (inactive); in the assay with NCI/ADR-RES, 5.15 µM (inactive); with OVCAR-4 it was 0.589 µM (active); with PC-3, 0.76 µM (active). For the same compound, the GI50 was 1.19 µM (inactive) in the assay on RPMI-8226; 0.782 µM (active) in the assay on SF-268; 1.31 µM (inactive) in the assay with SF-295; 0.918 µM (active) in the assay on SN12C; 1.11 µM (active) with SNB-19; 0.462 µM (active) with SW-620. In addition, the GI50 in the assay on UO-31 is 1.41 µM (inactive).
On to `COc1ccc(NC(=O)C2=C(SC)C(=O)N=C2N)cc1`, for which the GI50 in the assay with A498, in the assay on COLO 205, in the assay with EKVX, in the assay on HCC 2998, in the assay with HOP-92 and in the assay with K562 was > 100 µM (inactive) throughout. Moreover, the GI50 in the assay with NCI-H226, in the assay with NCI-H23, in the assay with NCI/ADR-RES, with OVCAR-4, in the assay on PC-3 and in the assay with RPMI-8226 was > 100 µM (inactive) in each case. The GI50 in the assay on SF-268, in the assay with SF-295, in the assay on SNB-19, in the assay on SW-620 and with UO-31 was > 100 µM (inactive) each time.
